{
  "source": "patent US6525001B1",
  "about": "“Substituted pyrimidine and pyridine herbicides” (Mid-American Commercialization Corporation, priority 1997, dated 2003)",
  "assay_type_in_all_cases": "in vivo",
  "key": {"[1]": {"tested_on": "deadnettle (Lamium amplexicaule)", "test": "Test D", "set-up": "key: 0 is no effect", "settings": "PREEMERGENCE"}, "rape (Brassica napus)": {"tested_on": "rape (Brassica napus)", "test": "Test D", "set-up": "key: 0 is no effect; 100 is complete control", "settings": "PREEMERGENCE"}, "[2]": {"tested_on": "winter barley (Hordeum vulgare)", "test": "Test D", "settings": "POSTEMERGENCE", "experimental": "(§1) Compounds evaluated in this test were formulated in a non-phytotoxic solvent mixture which included a surfactant and applied to plants that were in the 1- to 4-leaf stage (postemergence application). A mixture of sandy loam soil and greenhouse potting mix in a 60:40 ratio was used for the postemergence test.\n(§2) Plantings of these crops and weed species were adjusted to produce plants of appropriate size for the postemergence test. All plant species were grown using normal greenhouse practices. Crop and weed species include alfalfa (Medicago sativa), annual bluegrass (Poa annua), blackgrass (Alopecurus myosuroides), black nightshade (Solanum nigra), chickweed (Stellaria media), common poppy (Papaver rhoeas), deadnettle (Lamium amplexicaule), downy brome (Bromus tectorum), field violet (Viola arvensis), galium 2 (Galium aparine), green foxtail (Setaria viridis), Italian ryegrass (Lolium multiflorum), jointed goatgrass (Aegilops cylindrica), kochia (Kochia scoparia), lambsquarters (Chenopodium album), lentil (Lens culinaris), littleseed canarygrass (Phalaris minor), pea (Pisum sativum), potato (Solanum tuberosum), rape (Brassica napus), redroot pigweed (Amaranthus retroflexus), Russian thistle (Salsola kali), scentless chamomile (Matricaria inodora), sorghum (Sorghum vulgare), spring barley (Hordeum vulgare), sugar beet (Beta vulgaris), sunflower (Helianthus annuus), ivyleaf speedwell (Veronica hederaefolia), spring wheat (Triticum aestivum), winter wheat (Triticum aestivum), wild buckwheat (Polygonum convolvulus), wild mustard (Sinapis arvensis), wild oat (Avena fatua), windgrass (Apera spica-venti) and winter barley (Hordeum vulgare).\n(§3) Treated plants and untreated controls were maintained in a greenhouse for approximately 21 to 28 days, after which all treated plants were compared to untreated controls and visually evaluated. Plant response ratings, summarized in Table D, are based upon a 0 to 100 scale where 0 is no effect and 100 is complete control. A dash response (−) means no test result."}, "[3]": {"tested_on": "windgrass (Apera spica-venti)", "test": "Test D", "settings": "POSTEMERGENCE, Rate 62 g/ha", "experimental": "as §1, §2, §3"}, "[4]": {"tested_on": "Italian ryegrass (Lolium multiflorum)", "test": "Test D", "settings": "POSTEMERGENCE", "experimental": "as §1, §2, §3"}, "[5]": {"tested_on": "spring wheat (Triticum aestivum)", "test": "Test D", "settings": "POSTEMERGENCE", "experimental": "as §1, §2, §3"}, "[6]": {"tested_on": "blackgrass (Alopecurus myosuroides)", "test": "Test D", "settings": "POSTEMERGENCE", "experimental": "as §1, §2, §3"}, "[7]": {"tested_on": "downy brome (Bromus tectorum)", "test": "Test D", "settings": "POSTEMERGENCE", "experimental": "as §1, §2, §3"}, "[8]": {"tested_on": "winter wheat (Triticum aestivum)", "test": "Test D", "set-up": "key: 0 is no effect", "settings": "PREEMERGENCE"}, "[9]": {"tested_on": "wild buckwheat (Polygonum convolvulus)", "test": "Test D", "settings": "POSTEMERGENCE", "experimental": "as §1, §2, §3"}, "[10]": {"tested_on": "galium 2 (Galium aparine)", "test": "Test D", "settings": "POSTEMERGENCE", "experimental": "as §1, §2, §3"}, "[11]": {"tested_on": "redroot pigweed (Amaranthus retroflexus)", "test": "Test D", "settings": "POSTEMERGENCE", "experimental": "as §1, §2, §3"}, "kochia (Kochia scoparia)": {"tested_on": "kochia (Kochia scoparia)", "test": "Test D", "settings": "POSTEMERGENCE", "experimental": "as §1, §2, §3"}, "[12]": {"tested_on": "chickweed (Stellaria media)", "test": "Test D", "settings": "PREEMERGENCE"}, "[13]": {"tested_on": "annual bluegrass (Poa annua)", "test": "Test D", "set-up": "key: 0 is no effect; 100 is complete control", "settings": "PREEMERGENCE"}, "[14]": {"tested_on": "alexandergrass (Brachiaria plantaginea)", "test": "Test E pre-/postemergence/post directed", "set-up": "key: 0 is no injury; 100 is complete control", "settings": "PREEMERGENCE", "how_it_was_run": "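Injury scored visually on a 0–100 scale (100 = complete control) 13 to 21 days after treatment. Test chemicals, formulated with surfactant in non-phytotoxic solvent, were applied to soil within one day of planting, to plants at two to four leaves (three to twenty cm), or as directed spray at plant base.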"}},
  "data": [
    {"smiles": "CCc1cnc(-c2ccc(C(F)(F)F)cc2)nc1Cc1cccc(C(F)(F)F)c1", "note": "[Compound 22]", "values": [
      {"measurement": "Plant response rating, Deadnettle", "setting": "[1]; Rate 62 g/ha", "result": 0},
      {"measurement": "Plant response rating, Deadnettle", "setting": "[1]; Rate 125 g/ha", "result": 70},
      {"measurement": "Plant response rating, Deadnettle", "setting": "[1]; Rate 250 g/ha", "result": 10},
      {"measurement": "Plant response rating, Rape", "setting": "rape (Brassica napus); Rate 62 g/ha", "result": 20},
      {"measurement": "Plant response rating, Rape", "setting": "rape (Brassica napus); Rate 125 g/ha", "result": 100},
      {"measurement": "Plant response rating, Rape", "setting": "rape (Brassica napus); Rate 250 g/ha", "result": 50},
      {"measurement": "Plant response rating, Barley (winter)", "setting": "[2]; Rate 62 g/ha", "result": 10},
      {"measurement": "Plant response rating, Barley (winter)", "setting": "[2]; Rate 125 g/ha", "result": 10},
      {"measurement": "Plant response rating, Windgrass", "setting": "[3]", "result": 30},
      {"measurement": "Plant response rating, I. Ryegrass", "setting": "[4]; Rate 62 g/ha", "result": 10},
      {"measurement": "Plant response rating, I. Ryegrass", "setting": "[4]; Rate 125 g/ha", "result": 10},
      {"measurement": "Plant response rating, Spring Wheat", "setting": "[5]; Rate 62 g/ha", "result": 10},
      {"measurement": "Plant response rating, Spring Wheat", "setting": "[5]; Rate 125 g/ha", "result": 20},
      {"measurement": "Plant response rating, Blackgrass", "setting": "[6]; Rate 62 g/ha", "result": 10},
      {"measurement": "Plant response rating, Blackgrass", "setting": "[6]; Rate 125 g/ha", "result": 20},
      {"measurement": "Plant response rating, Downy brome", "setting": "[7]; Rate 62 g/ha", "result": 10},
      {"measurement": "Plant response rating, Downy brome", "setting": "[7]; Rate 125 g/ha", "result": 20},
      {"measurement": "Plant response rating, Wheat (winter)", "setting": "[8]; Rate 62 g/ha", "result": 0},
      {"measurement": "Plant response rating, Wheat (winter)", "setting": "[8]; Rate 125 g/ha", "result": 10},
      {"measurement": "Plant response rating, Wheat (winter)", "setting": "[8]; Rate 250 g/ha", "result": 5},
      {"measurement": "Plant response rating, Wild buckwheat", "setting": "[9]; Rate 62 g/ha", "result": 20},
      {"measurement": "Plant response rating, Wild buckwheat", "setting": "[9]; Rate 125 g/ha", "result": 20},
      {"measurement": "Plant response rating, Galium", "setting": "[10]; Rate 62 g/ha", "result": 70},
      {"measurement": "Plant response rating, Galium", "setting": "[10]; Rate 125 g/ha", "result": 90},
      {"measurement": "Plant response rating, Redroot pigweed", "setting": "[11]; Rate 62 g/ha", "result": 50},
      {"measurement": "Plant response rating, Redroot pigweed", "setting": "[11]; Rate 125 g/ha", "result": 70},
      {"measurement": "Plant response rating, Kochia", "setting": "kochia (Kochia scoparia); Rate 62 g/ha", "result": 50},
      {"measurement": "Plant response rating, Kochia", "setting": "kochia (Kochia scoparia); Rate 125 g/ha", "result": 70},
      {"measurement": "Plant response rating, Chickweed", "setting": "[12]; Rate 62 g/ha", "result": 40},
      {"measurement": "Plant response rating, Chickweed", "setting": "[12]; Rate 125 g/ha", "result": 70},
      {"measurement": "Plant response rating, Chickweed", "setting": "[12]; Rate 250 g/ha", "result": 30},
      {"measurement": "Plant response rating, Annual bluegras", "setting": "[13]; Rate 62 g/ha", "result": 20},
      {"measurement": "Plant response rating, Annual bluegras", "setting": "[13]; Rate 125 g/ha", "result": 100},
      {"measurement": "Plant response rating, Annual bluegras", "setting": "[13]; Rate 250 g/ha", "result": 50}
    ]},
    {"smiles": "COc1cnc(-c2ccc(C(F)(F)F)cc2)nc1Cc1cccc(C(F)(F)F)c1", "note": "[Compound 23]", "values": [
      {"measurement": "Plant response rating, Alexandergrass", "setting": "[14]; Rate 32 g/ha", "result": 0},
      {"measurement": "Plant response rating, Alexandergrass", "setting": "[14]; Rate 64 g/ha", "result": 0}
    ]},
    {"smiles": "Cc1cnc(-n2cnc(C(F)(F)F)c2)nc1Cc1cccc(C(F)(F)F)c1", "note": "[Compound 44]", "values": [
      {"measurement": "Plant response rating, Alexandergrass", "setting": "[14]; Rate 32 g/ha", "result": 0}
    ]}
  ]
}
